Measurements: ChEMBL document CHEMBL1138977, “Design and synthesis of novel 5,6-disubstituted uracil derivatives as potent inhibitors of thymidine phosphorylase” (Bioorg Med Chem Lett, 2006)

Biological target: Thymidine phosphorylase (Escherichia coli K-12, UniProt P07650)
Assay: Inhibition of Escherichia coli TP

Chain of Thymidine phosphorylase (P07650 whole entry): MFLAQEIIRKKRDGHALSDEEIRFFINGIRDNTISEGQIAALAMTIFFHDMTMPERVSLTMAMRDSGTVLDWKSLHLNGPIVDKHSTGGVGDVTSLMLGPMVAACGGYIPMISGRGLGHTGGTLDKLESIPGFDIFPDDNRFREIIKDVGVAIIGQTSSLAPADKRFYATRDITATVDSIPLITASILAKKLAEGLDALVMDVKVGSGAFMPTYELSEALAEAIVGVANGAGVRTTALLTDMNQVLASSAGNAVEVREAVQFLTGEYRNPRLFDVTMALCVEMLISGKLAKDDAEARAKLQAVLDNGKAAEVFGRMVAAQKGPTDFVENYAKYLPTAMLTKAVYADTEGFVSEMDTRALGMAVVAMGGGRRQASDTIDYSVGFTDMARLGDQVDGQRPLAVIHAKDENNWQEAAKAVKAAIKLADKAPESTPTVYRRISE

IC50 [µM] | Compound
5.5 | OCC1CCN(c2nc(O)nc(O)c2Br)CC1
2 | Oc1nc(O)c(Br)c(N2CCC2)n1
9.1 | NNc1nc(O)nc(O)c1Cl
4 | Nc1[nH]c(=O)[nH]c(=O)c1Cl
4.4 | Oc1nc(O)c(Cl)c(N2CCCC2)n1
2.5 | Oc1nc(O)c(Br)c(NCCNc2nc(O)nc(O)c2Br)n1
3.5 | Oc1nc(O)c(Br)c(NC2CC2)n1
5.5 | OCCC1CCN(c2nc(O)nc(O)c2Cl)CC1
8.7 | Oc1nc(O)c(Cl)c(N2CCN(c3nc(O)nc(O)c3Cl)CC2)n1
5.4 | OCC1CCCN(c2nc(O)nc(O)c2Cl)C1 (stereo unspecified)
10.4 | Oc1nc(O)c(Cl)c(N2CCOCC2)n1
14 | Oc1nc(O)c(Cl)c(N2CCC2)n1
6.5 | OCC1CCCN(c2nc(O)nc(O)c2Br)C1 (stereo unspecified)
6.5 | OCC1CCCCN1c1nc(O)nc(O)c1Br (stereo unspecified)
4.3 | OCC1CCCCN1c1nc(O)nc(O)c1Cl (stereo unspecified)
10.1 | Oc1nc(O)c(Cl)c(NC2CC2)n1
11.6 | Oc1nc(O)c(Br)c(N2CCOCC2)n1
2.3 | Oc1nc(O)c(Br)c(N2CCN(c3nc(O)nc(O)c3Br)CC2)n1
7.3 | Oc1nc(O)c(Cl)c(N2CCCCC2)n1
9.1 | Oc1nc(O)c(Br)c(N2CCCCC2)n1
6.1 | OCCC1CCN(c2nc(O)nc(O)c2Br)CC1
